Laboratory results from the NIST ThermoML archive (doi:10.1021/je8004062).

Test: mn = molality of the nth substance listed, in mol/kg
Details: 101 kPa, Liquid

[Cl-].[Cl-].[Cl-].[La+3] [lanthanum chloride] + O
Details | mass density, 293.15 K [kg/m3] | mass density, 298.15 K [kg/m3] | mass density, 303.15 K [kg/m3] | viscosity, 293.15 K [mPa·s] | viscosity, 298.15 K [mPa·s] | viscosity, 303.15 K [mPa·s]
m1 = 0.0996 | 1020.8 | 1019.4 | 1018 | 1.068 | 0.9503 | 0.8517
m1 = 0.1997 | 1043.7 | 1042.1 | 1040.4 | 1.109 | 0.9881 | 0.8863
m1 = 0.2997 | 1065.6 | 1063.8 | 1062 | 1.176 | 1.049 | 0.9414
m1 = 0.3994 | 1086.9 | 1085 | 1083.2 | 1.255 | 1.12 | 1.006
m1 = 0.4984 | 1107.7 | 1105.8 | 1103.9 | 1.34 | 1.196 | 1.075
m1 = 0.6 | 1128.9 | 1126.9 | 1125 | 1.432 | 1.279 | 1.149
m1 = 0.6981 | 1149.1 | 1147.2 | 1145.3 | 1.524 | 1.361 | 1.224
m1 = 0.7983 | 1169.6 | 1167.7 | 1165.8 | 1.621 | 1.447 | 1.301
m1 = 0.9256 | 1195.5 | 1193.7 | 1191.8 | 1.745 | 1.558 | 1.402
m1 = 1.201 | 1251.1 | 1249.5 | 1247.8 | 2.02 | 1.804 | 1.624

[Cl-].[Na+] [sodium chloride] + O
Details | mass density, 293.15 K [kg/m3] | mass density, 298.15 K [kg/m3] | mass density, 303.15 K [kg/m3] | viscosity, 293.15 K [mPa·s] | viscosity, 298.15 K [mPa·s] | viscosity, 303.15 K [mPa·s]
m1 = 0.2076 | 1006.3 | 1005.7 | 1004 | 1.012 | 0.9082 | 0.8115
m1 = 0.3959 | – | 1013.2 | 1011.7 | 1.031 | 0.9237 | 0.8306
m1 = 0.5997 | 1022 | 1021.2 | – | 1.054 | 0.9408 | 0.8489
m1 = 0.7817 | 1029 | 1028.1 | 1026.4 | 1.073 | 0.9565 | 0.8638
m1 = 1.01 | 1037.6 | – | 1034.8 | 1.098 | 0.9769 | 0.8825
m1 = 1.199 | 1044.5 | 1043.4 | 1041.4 | 1.117 | 0.9944 | 0.898
m1 = 1.502 | 1055.4 | 1054.3 | 1052.3 | 1.151 | 1.024 | 0.9236
m1 = 1.794 | 1065.7 | 1064.5 | 1062.5 | 1.184 | 1.054 | 0.9496
m1 = 2.004 | 1073.1 | 1071.8 | 1069.7 | 1.208 | 1.077 | 0.9695
m1 = 2.409 | 1086.9 | 1085.5 | 1083.4 | 1.256 | 1.124 | 1.011
m1 = 3 | 1106.5 | 1105 | 1102.7 | 1.332 | 1.2 | 1.08
m1 = 3.595 | 1125.5 | 1123.8 | 1121.4 | 1.412 | 1.288 | 1.162
m1 = 4.186 | 1143.5 | 1141.7 | 1139.2 | 1.496 | 1.385 | 1.256
m1 = 4.812 | 1162.1 | 1160 | 1157.5 | 1.592 | 1.502 | 1.373
